Test results from US12351570B2 (MERCK PATENT GMBH, priority 2018, dated 2025).
Read-outs that look alike come from different tables or passages of the source.

Columns and labels:
[1] = system: MDA-MB-231 cells; assay: Extracellular lactate production inhibition after 4 h, MDA-MB-231; settings: Homo sapiens
Protocol: (§1) Extracellular Lactate Production Inhibition after 4 h
(§2) Cells were plated in growth media supplemented with 10% FBS, followed by overnight recovery at 37° C., 5% CO2. […] Plates were then moved for 4 h incubation at 37° C., 5% CO2 with subsequent 20 μl media transfer to empty 384-well transparent plates. […] Plates were short-spun and measured kinetically in absorbance mode (530 nm, 12 min measurement time with 2-minute intervals between subsequent readouts at 30° C.). Differences in the signal between T8 min and T0min were normalized to vehicle (cells w/ 0.25% DMSO) and quasi-positive (LCIS buffer w/ 0.25% DMSO) controls and plotted against logarithmically-transformed test compound concentrations with fitting the 4-parameter model in GraphPad Prism software.

[2] = system: SNU398 cells; assay: Extracellular lactate production inhibition after 4 h, SNU398; settings: Homo sapiens, SNU-398, read-out: IC50 (SNU-398)
Protocol: as §1, §2

[3] = system: MIA PaCa-2 cells; assay: Extracellular lactate production inhibition after 4 h, MIA PaCa-2; settings: Homo sapiens, MIA PaCa-2, read-out: IC50 (MiaPACa)
Protocol: as §1, §2

[4] = MDA-MB-231, read-out: IC50 (MDA-MB231)

Compound | IC50 ([1]; MDA-MB-231) [µM] | other results
Cc1ccc2cccnc2c1S(=O)(=O)Nc1ccccc1C#Cc1cnc(C(=O)O)c2ccccc12 [Compound 208, 4-{2-[2-(7-methylquinoline-8-sulfonamido)phenyl]ethynyl}isoquinoline-1-carboxylic acid] | 0.1 to 1 | IC50 [1, 4]: < 1 µM; IC50 [2]: < 1 µM; IC50 [3]: < 1 µM
CS(=O)(=Nc1ccccc1C#Cc1ccc(C(=O)O)nc1)c1ccc(F)cc1 (stereo not drawn) [Compound 431, 5-[2-(2-{[(4-fluorophenyl)(methyl)oxo-λ6-sulfanylidene]amino}phenyl)ethynyl] pyridine-2-carboxylic acid] | 1 to 100 | –
COc1ccccc1-c1ccc(CN(C=O)c2ccccc2C#Cc2ccc(C(=O)O)nc2)cc1 [Compound 191, 5-(2-{2-[N-({2′-methoxy-[1,1′-biphenyl]-4-yl}methyl)formamido]phenyl}ethynyl)-pyridine-2-carboxylic acid] | 0.01 to 0.1 | –
Cc1cc(C)c2cccnc2c1S(=O)(=O)Nc1ccccc1C#Cc1cnc(C(=O)O)c2ccccc12 [Compound 446, 4-{2-[2-(5,7-dimethylquinoline-8-sulfonamido)phenyl]ethynyl}iso-quinoline-1-carboxylic acid] | 0.1 to 1 | –
CCNc1cc(C#Cc2ccccc2NS(=O)(=O)c2cccc3cccnc23)cnc1C(=O)O [Compound 394, 3-(ethylamino)-5-{2-[2-(quinoline-8-sulfonamido)phenyl]ethynyl}pyridine-2-carboxylic acid] | 0.001 to 0.01 | –
Cc1cc(C#Cc2ccccc2N(C=O)Cc2ccc3ccccc3c2)cnc1C(=O)O [Compound 195, 3-methyl-5-[2-(2-{N-[(naphthalen-2-yl)methyl]formamido}phenyl)ethynyl]-pyridine-2-carboxylic acid] | 0.1 to 1 | –
COc1cc(C(=O)O)ncc1C#Cc1ccccc1NS(=O)(=O)c1ccc(OC(F)(F)F)c2cccnc12 [Compound 389, 4-Methoxy-5-[2-(5-trifluoromethoxy-quinoline-8-sulfonylamino)-phenylethynyl]-pyridine-2-carboxylic acid] | 0.001 to 0.01 | –
COC(=O)c1cc(C)c(C#Cc2ccccc2NS(=O)(=O)c2ccc(OC)c3cccnc23)cn1 [Compound 122, methyl 5-{2-[2-(5-methoxyquinoline-8-sulfonamido)phenyl]ethynyl}-4-methylpyridine-2-carboxylate] | 0.01 to 0.1 | –
COc1ccc(S(=O)(=O)Nc2ccc(F)cc2C#Cc2cnc(C(=O)O)c(C)c2)c2ncccc12 [Compound 311, 5-{2-[5-fluoro-2-(5-methoxyquinoline-8-sulfonamido)phenyl]ethynyl}-3-methylpyridine-2-carboxylic acid] | 0.1 to 1 | –
COc1ccc(S(=O)(=O)Nc2ccccc2C#Cc2cnc3c(c2)CN(C)C3=O)c2ncccc12 [Compound 245, 5-methoxy-N-[2-(2-{6-methyl-7-oxo-5H,6H,7H-pyrrolo[3,4-b]pyridin-3-yl}ethynyl)phenyl]quinoline-8-sulfonamide] | 1 to 100 | –
COc1ccc(C#Cc2ccc(C(=O)O)nc2)c(NS(=O)(=O)c2c(C)ccc3cccnc23)c1 [Compound 218, 5-{2-[4-methoxy-2-(7-methylquinoline-8-sulfonamido)phenyl]ethynyl}pyridine-2-carboxylic acid] | 0.1 to 1 | –
O=C(O)c1ccc(C#Cc2ccccc2NS(=O)(=O)c2ccc3c(c2)oc2ccccc23)cn1 [Compound 301, 5-[2-(2-{8-oxatricyclo[7.4.0.0^2,7]trideca-1(9),2(7),3,5,10,12-hexaene-5-sulfonamido}phenyl)ethynyl]pyridine-2-carboxylic acid] | 0.1 to 1 | –
Cc1ccc2cccc(S(=O)(=O)Nc3ccccc3C#Cc3ccc(C(=O)O)nc3)c2n1 [Compound 267, 5-[2-(2-Methyl-quinoline-8-sulfonylamino)-phenylethynyl]-pyridine-2-carboxylic acid] | 0.1 to 1 | –
Cc1ccc2cccnc2c1S(=O)(=O)Nc1ccccc1C#Cc1cnc(C(=O)O)cc1O [Compound 193, 4-hydroxy-5-{2-[2-(7-methylquinoline-8-sulfonamido)phenyl]ethynyl}pyridine-2-carboxylic acid] | 1 to 100 | –
Cc1ccc(S(=O)(=O)Nc2ccccc2C#Cc2ccc(C(=O)O)nc2)c2ncccc12 [Compound 374, 5-{2-[2-(5-methylquinoline-8-sulfonamido)phenyl]ethynyl}pyridine-2-carboxylic acid] | 0.1 to 1 | –
O=C(O)c1ccc(C#Cc2ccccc2NS(=O)(=O)c2c(Cl)nc3sccn23)cn1 [Compound 98, 5-[2-(2-{6-chloroimidazo[2,1-b][1,3]thiazole-5-sulfonamido}phenyl)-ethynyl]pyridine-2-carboxylic acid] | 1 to 100 | –
O=C(O)c1ccc(C#Cc2ccccc2NS(=O)(=O)c2ccc3ccccc3c2)cc1Cl [Compound 28, 2-chloro-4-{2-[2-(naphthalene-2-sulfonamido)phenyl]ethynyl}benzoic acid] | 0.1 to 1 | –
CN(c1ccccc1)S(=O)(=O)c1ccccc1C#Cc1ccc(C(=O)O)nc1 [Compound 440, 5-(2-{2-[methyl(phenyl)sulfamoyl]phenyl}-ethynyl)pyridine-2-carboxylic acid] | 1 to 100 | –
CCOC(=O)c1ccc(C#Cc2ccccc2NS(=O)(=O)c2ccc(OC)c3cccnc23)cn1 [Compound 165, ethyl 5-{2-[2-(5-methoxyquinoline-8-sulfonamido)phenyl]ethynyl}pyridine-2-carboxylate] | 0.01 to 0.1 | –
Cc1cc(C#Cc2ccccc2NS(=O)(=O)N2CCC[C@@H]3CCCC[C@H]32)cnc1C(=O)O [Compound 225, 5-[2-(2-{[(4a,8a-trans)-decahydro-quinoline-1-sulfonyl]amino}phenyl)-ethynyl]-3-methylpyridine-2-carboxylic acid] | 0.01 to 0.1 | –
COC(=O)c1cc(C)c(C#Cc2cc(F)ccc2NS(=O)(=O)c2ccc(-c3ccccc3)cc2)cn1 [Compound 139, methyl 5-[2-(2-{[1,1′-biphenyl]-4-sulfonamido}-5-fluorophenyl)ethynyl]-4-methylpyridine-2-carboxylate] | 0.1 to 1 | –
COc1ccc(S(=O)(=O)Nc2ccccc2C#Cc2ccc(C(=O)N(C)C)nc2)c2ncccc12 [Compound 217] | 1 to 100 | IC50 [1, 4]: < 1 µM; IC50 [2]: < 1 µM; IC50 [3]: < 1 µM
Cc1ccc(C#Cc2ccc(C(=O)O)cc2)c(NS(=O)(=O)c2ccc3ccccc3c2)n1 [Compound 41, 4-{2-[6-methyl-2-(naphthalene-2-sulfonamido)pyridin-3-yl]ethynyl}benzoic acid] | 0.1 to 1 | –
O=C(O)c1ccc(C#Cc2cc(Cl)ccc2NS(=O)(=O)c2cccc3cccnc23)cn1 [Compound 368, 5-{2-[5-chloro-2-(quinoline-8-sulfonamido)phenyl]ethynyl}pyridine-2-carboxylic acid] | 0.01 to 0.1 | –
